EC50 and activation data for 24 compounds are collected here from US20260199273A1, “Compounds for the Treatment of Neuromuscular Disorders” (NMD PHARMA A/S, priority 2022, published 2026).

The term EC50 denotes the concentration giving half of the maximal effect.

One assay addresses T1, CIC-1 ion channel (Rattus norvegicus, UniProt P35524).
T1 construct: from tissue; host or cells: whole soleus muscle of 12-14 week old Wistar rats
T1 sequence (P35524 1-994): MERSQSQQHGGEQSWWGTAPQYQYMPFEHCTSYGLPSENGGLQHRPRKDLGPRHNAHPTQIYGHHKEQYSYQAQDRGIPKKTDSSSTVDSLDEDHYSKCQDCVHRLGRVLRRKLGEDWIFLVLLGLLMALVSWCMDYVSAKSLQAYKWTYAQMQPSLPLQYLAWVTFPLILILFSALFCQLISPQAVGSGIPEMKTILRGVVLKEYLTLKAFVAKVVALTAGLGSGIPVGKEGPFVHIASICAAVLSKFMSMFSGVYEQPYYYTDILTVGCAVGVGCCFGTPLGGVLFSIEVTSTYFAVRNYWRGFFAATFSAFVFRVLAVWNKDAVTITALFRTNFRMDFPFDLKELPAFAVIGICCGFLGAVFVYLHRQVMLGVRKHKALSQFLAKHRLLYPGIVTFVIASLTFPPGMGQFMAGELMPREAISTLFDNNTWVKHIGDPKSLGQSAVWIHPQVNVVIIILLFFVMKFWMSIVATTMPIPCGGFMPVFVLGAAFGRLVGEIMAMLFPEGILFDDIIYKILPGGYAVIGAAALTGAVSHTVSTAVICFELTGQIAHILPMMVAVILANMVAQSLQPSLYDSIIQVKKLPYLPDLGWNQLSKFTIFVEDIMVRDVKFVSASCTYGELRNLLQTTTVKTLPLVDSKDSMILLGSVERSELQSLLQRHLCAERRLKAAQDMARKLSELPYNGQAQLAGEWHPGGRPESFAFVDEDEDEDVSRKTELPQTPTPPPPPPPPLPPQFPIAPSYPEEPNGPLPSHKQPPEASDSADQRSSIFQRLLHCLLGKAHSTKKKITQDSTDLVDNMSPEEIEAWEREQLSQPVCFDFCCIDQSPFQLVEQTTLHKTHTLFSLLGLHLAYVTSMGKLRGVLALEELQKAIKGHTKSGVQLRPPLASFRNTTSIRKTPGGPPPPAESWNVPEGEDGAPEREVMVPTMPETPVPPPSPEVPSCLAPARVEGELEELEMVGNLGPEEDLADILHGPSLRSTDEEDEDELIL
As to the kind of experiment: Electrophysiological measurement of compound inhibition of CIC-1 in rat muscle (Gm in soleus fibres, three micro-electrodes). Type of assay: cell-based. The settings on record: Gm in individual fibres of whole rat soleus muscles, approx. 30° C., four increasing compound concentrations; read-out: Potency Range (EC50, inhibition of CIC-1 ion channel). As for the experimental part:
Apparent CIC-1 affinity was reported by the concentration of compound at which 50% of the compound's full inhibition of CIC-1 was observed (EC50) (see also WO2019/115777).
Experimentally, Gm was measured in individual fibres of whole rat soleus muscles using a three micro-electrodes technique described in this example and in full detail elsewhere (Riisager et al., Determination of cable parameters in skeletal muscle fibres during repetitive firing of action potentials. Journal of Physiology, 2014, 592, 4417-4429). Briefly, intact rat soleus muscles were dissected out from 12-14 week old Wistar rats and placed in an experimental chamber that was perfused with a standard Krebs Ringer solution containing 122 mM NaCl, 25 mM NaHCO3, 2.8 mM KCl, 1.2 mM KH2PO4, 1.2 mM MgSO4, 1.3 mM CaCl2, 5.0 mM D-glucose. During experiments, the solution was kept at approx. 30° C. and continuously equilibrated with a mixture of 95% O2 and 5% CO2, pH ~7.4. The experimental chamber was placed in Nikon upright microscope that was used to visualize individual muscle fibres and the three electrodes (glass pipettes filled with 2 M potassium citrate). For Gm measurements, the electrodes were inserted into the same fibre with known inter-electrode distances of 0.35-0.5 mm (V1-V2, X1) and 1.1-1.5 mm (V1-V3, X3). The membrane potential of the impaled muscle fibre was recorded by all electrodes. Two of the electrodes were furthermore used to inject 50 ms current pulses of −30 nA. […] The steady state voltage deflection at each distance was divided by the magnitude of current injected (−30 nA) and the resulting transfer resistances were plotted against inter-electrode distance and the data was fitted to a mono-exponential function from which Gm could be calculated using linear cable theory.
To establish a dose response relationship, Gm was first determined in 10 muscle fibres in the absence of compound and then at four increasing compound concentrations with Gm determinations in 5-10 fibres at each concentration. The average Gm values at each concentration were plotted against compound concentration and the data was fitted to sigmoidal function to obtain an EC5o value.
Take `CCc1c(Cl)cc2c(c1C(=O)O)CCC2` [Compound A-13, 6-Chloro-5-ethyl-2,3-dihydro-1H-indene-4-carboxylic acid]: the EC50 lay within 10 to 20 µM.

In another assay the test system is isolated rat soleus nerve-muscle preparations. As to the kind of experiment: Measurement of force in an in vitro model: recovery of nerve-stimulated contractile force after tubocurarine. The conditions noted are these: 40 min, 10 μM of test compound, after 40 mins of compound exposure, tubocurarine (115 nM) for 90 minutes, read-out: Point increase (%): percentage increase of initial force that was restored. The method, then:
In one aspect, the invention relates to a method for recovery of force in muscles with neuromuscular dysfunction, said method comprising administering a compound or a composition as defined herein to a subject in need thereof. The term “recovery of force in muscles with neuromuscular dysfunction” as used herein refers to the ability of a compound to recover contractile force in nerve-stimulated healthy rat muscle after exposure to submaximal concentration (115 nM) of tubocurarine for 90 minutes.
Recovery of force is quantified as the percentage of the force prior to tubocurarine that is recovered after addition of the compound. In one embodiment, said recovery of force is >5%, such as >10%, such as >15%, such as >20%, such as >25%, such as >30%, such as >35%.
The current disclosure relates to compounds that inhibit CIC-1 ion channels and increase muscle excitability and thereby improve muscle function in clinical conditions where muscle activation is failing. Such conditions result in loss of contractile function of skeletal muscle, weakness and excessive fatigue. In this series of experiments the compounds were tested for their ability to restore contractile function of isolated rat muscle when the neuromuscular transmission had been compromised akin to neuromuscular disorders.
Experimentally, soleus muscles from 4-5 week old rats were isolated with the motor nerve remaining attached. The nerve-muscle preparations were mounted in experimental setups that enabled electrical stimulation of the motor nerve. Stimulation of the motor nerve led to activation of the muscle fibres and ensuing force production that was recorded. The nerve-muscle preparations were also in these experiments incubated in the standard Krebs Ringer (see example 15) and the solution was heated to 30° C. and continuously equilibrated with a mixture of 95% O2 and 5% CO2, pH ~7.4.
After mounting the nerve-muscle preparation in the experimental setup, the contractile function of the muscle was initially assessed under the control conditions. Sub-maximal concentration of tubocurarine (115 nM), an acetylcholine receptor antagonist, was then added to the experimental bath to impose partial inhibition of the ability of the motor nerve to activate the muscle fibres. The experimental condition mimics the failing neuromuscular transmission in a range of neuromuscular disorders. After addition of tubocurarine the contractile force declined over the next 90 minutes to 10-50% of the control force. The test compound was then added to obtain the required compound concentration in the bath and the contractile force recovered was measured. To quantify the ability of the compound to restore force the percentage of the initial force that was restored was determined after 40 mins of compound exposure and the point increase is reported in Tables 3 to 7.
Take `CCOc1c(Cl)cc2c(c1C(=O)O)CCCC2` [Compound A-82, 3-Chloro-2-ethoxy-5,6,7,8-tetrahydro-1-naphthoic acid]: the activation at 10 µM came to 61%.
In the case of `COc1c(Cl)cc2c(c1C(=O)O)CCCO2` [Compound A-79, 7-Chloro-6-methoxy-5-chromancarboxylic acid], the activation at 10 µM was found to be 34%.
With `CN1CCCc2cc(F)c(Cl)c(C(=O)O)c21` [Compound A-77, 7-Chloro-6-fluoro-1-methyl-1,2,3,4-tetrahydro-8-quinolinecarboxylic acid], the activation at 10 µM stood at 18%.
In the case of `O=C(O)c1c(Cl)c(Br)cc2c1CCCC2` [Compound A-67, 3-bromo-2-chloro-5,6,7,8-tetrahydronaphthalene-1-carboxylic acid], the activation at 10 µM amounted to 25%.
Still for that read-out and setting: the value for `CC1(C)CCc2cc(F)c(Cl)c(C(=O)O)c2O1` [Compound A-75, 7-Chloro-6-fluoro-2,2-dimethyl-8-chromancarboxylic acid] was 10%.
With `O=C(O)c1c(Br)c(Cl)cc2c1CCCC2` [Compound A-66, 2-Bromo-3-chloro-5,6,7,8-tetrahydronaphthalene-1-carboxylic acid], the activation at 10 µM came to 25%.

Staying with this assay, now noted: 40 min, 25 μM of test compound, after 40 mins of compound exposure, tubocurarine (115 nM) for 90 minutes, read-out: Point increase (%): percentage increase of initial force that was restored.
As for `O=C(O)c1c(Cl)c(F)cc2c1SCCC2` [Compound A-64, 7-Chloro-6-fluoro-3,4-dihydro-2H-1-benzothiopyran-8-carboxylic acid], the activation at 25 µM worked out at 34%.
Regarding `O=C(O)c1c(F)c(Cl)cc2c1CCN2Cc1ccccc1` [Compound A-76, 1-Benzyl-6-chloro-5-fluoro-4-indolinecarboxylic acid], the activation at 25 µM was 45%.
For `O=C(O)c1c(Cl)c(F)cc2c1CCC2` [Compound A-62, 5-Chloro-6-fluoro-2,3-dihydro-1H-indene-4-carboxylic acid], the activation at 25 µM is 14%.
In the case of `O=C(O)c1c(F)c(Cl)cc2c1OCCC2Cc1ccccc1` (stereo not shown) [Compound A-78, 4-Benzyl-6-chloro-7-fluoro-8-chromancarboxylic acid], the activation at 25 µM was found to be 35%.

Still in this assay, the particulars now being: 40 min, 50 μM of test compound, after 40 mins of compound exposure, tubocurarine (115 nM) for 90 minutes, read-out: Point increase (%): percentage increase of initial force that was restored.
Consider `CCc1c(Cl)cc2c(c1C(=O)O)CCC2` [Compound A-13, 6-Chloro-5-ethyl-2,3-dihydro-1H-indene-4-carboxylic acid], for which the activation at 50 µM came to 26%.
On the same count and under the same terms, the figure for `Cc1c(Cl)cc2c(c1C(=O)O)OCC2` [Compound A-12, 5-Chloro-6-methyl-2,3-dihydro-1-benzofuran-7-carboxylic acid] is 19%.
For `O=C(O)c1c(F)c(C(F)(F)F)cc2c1CCCC2` [Compound A-60, 2-Fluoro-3-(trifluoromethyl)-5,6,7,8-tetrahydronaphthalene-1-carboxylic acid], the activation at 50 µM was 21%.
The same measure, in the same setting: the figure for `O=C(O)c1c2c(cc(Cl)c1OC(F)(F)F)CCC2` [Compound A-11, 6-Chloro-5-(trifluoromethoxy)-2,3-dihydro-1H-indene-4-carboxylic acid] is 31%.
Still for that read-out and setting: the figure for `Cc1c(Br)cc2c(c1C(=O)O)CCC2` [Compound A-2, 6-Bromo-5-methyl-2,3-dihydro-1H-indene-4-carboxylic acid] is 19%; for `O=C(O)c1c2c(cc(Cl)c1OCF)CCC2` [Compound A-7, 6-Chloro-5-(fluoromethoxy)-2,3-dihydro-1H-indene-4-carboxylic acid] it is 36%.
On to `Cc1cc2c(c(C(=O)O)c1F)CCCO2` [Compound A-58, 6-Fluoro-7-methyl-3,4-dihydro-2H-1-benzopyran-5-carboxylic acid], for which the activation at 50 µM stood at 48%.
On the same count and under the same terms, the figure for `O=C(O)c1c(F)c(I)cc2c1CCCC2` [Compound A-55, 2-Fluoro-3-iodo-5,6,7,8-tetrahydronaphthalene-1-carboxylic acid] is 42%; for `COc1cc2c(c(C(=O)O)c1F)OCCC2Cc1ccccc1` (stereo not shown) [Compound A-80, 4-Benzyl-7-fluoro-6-methoxy-8-chromancarboxylic acid] it is 22%; for `O=C(O)c1c(F)c(Cl)cc2c1OCC2` [Compound A-43, 5-Chloro-6-fluoro-2,3-dihydro-1-benzofuran-7-carboxylic acid] it is 25%.
The same measure, in the same setting: the value for `COc1c(F)cc2c(c1C(=O)O)C(Cc1ccccc1)CCO2` (stereo not shown) [Compound A-81, 4-Benzyl-7-fluoro-6-methoxy-5-chromancarboxylic acid] was 19%; that for `Cc1cc2c(c(C(=O)O)c1Cl)CCCCC2` [Compound A-34, 2-chloro-3-methyl-6,7,8,9-tetrahydro-5H-benzo[7]annulene-1-carboxylic acid] was 20%.

Staying with this assay, now noted: 40 min, 100 μM of test compound, after 40 mins of compound exposure, tubocurarine (115 nM) for 90 minutes, read-out: Point increase (%): percentage increase of initial force that was restored.
With `CN1CCCc2c1cc(Cl)c(F)c2C(=O)O` [Compound A-45, 7-Chloro-6-fluoro-1-methyl-1,2,3,4-tetrahydroquinoline-5-carboxylic acid], the activation at 100 µM came to 38%.
Take `O=C(O)c1c(Cl)c(Cl)cc2c1CN(Cc1ccccc1)C2` [Compound A-68, 2-Benzyl-5,6-dichloro-2,3-dihydro-1H-isoindole-4-carboxylic acid]: the activation at 100 µM stood at 40%.
